{"source": "patent US20230348487A1", "about": "“2-AMINOPYRIMIDINE COMPOUND AND PHARMACEUTICAL COMPOSITION THEREOF AND APPLICATION THEREOF” (GUANGZHOU SALUSTIER BIOSCIENCES CO., LTD., priority 2021, published 2023)", "key": {"JAK1": {"molecular_target": "JAK1 (Homo sapiens (Human), UniProt P23458)", "sequence (P23458 whole entry)": "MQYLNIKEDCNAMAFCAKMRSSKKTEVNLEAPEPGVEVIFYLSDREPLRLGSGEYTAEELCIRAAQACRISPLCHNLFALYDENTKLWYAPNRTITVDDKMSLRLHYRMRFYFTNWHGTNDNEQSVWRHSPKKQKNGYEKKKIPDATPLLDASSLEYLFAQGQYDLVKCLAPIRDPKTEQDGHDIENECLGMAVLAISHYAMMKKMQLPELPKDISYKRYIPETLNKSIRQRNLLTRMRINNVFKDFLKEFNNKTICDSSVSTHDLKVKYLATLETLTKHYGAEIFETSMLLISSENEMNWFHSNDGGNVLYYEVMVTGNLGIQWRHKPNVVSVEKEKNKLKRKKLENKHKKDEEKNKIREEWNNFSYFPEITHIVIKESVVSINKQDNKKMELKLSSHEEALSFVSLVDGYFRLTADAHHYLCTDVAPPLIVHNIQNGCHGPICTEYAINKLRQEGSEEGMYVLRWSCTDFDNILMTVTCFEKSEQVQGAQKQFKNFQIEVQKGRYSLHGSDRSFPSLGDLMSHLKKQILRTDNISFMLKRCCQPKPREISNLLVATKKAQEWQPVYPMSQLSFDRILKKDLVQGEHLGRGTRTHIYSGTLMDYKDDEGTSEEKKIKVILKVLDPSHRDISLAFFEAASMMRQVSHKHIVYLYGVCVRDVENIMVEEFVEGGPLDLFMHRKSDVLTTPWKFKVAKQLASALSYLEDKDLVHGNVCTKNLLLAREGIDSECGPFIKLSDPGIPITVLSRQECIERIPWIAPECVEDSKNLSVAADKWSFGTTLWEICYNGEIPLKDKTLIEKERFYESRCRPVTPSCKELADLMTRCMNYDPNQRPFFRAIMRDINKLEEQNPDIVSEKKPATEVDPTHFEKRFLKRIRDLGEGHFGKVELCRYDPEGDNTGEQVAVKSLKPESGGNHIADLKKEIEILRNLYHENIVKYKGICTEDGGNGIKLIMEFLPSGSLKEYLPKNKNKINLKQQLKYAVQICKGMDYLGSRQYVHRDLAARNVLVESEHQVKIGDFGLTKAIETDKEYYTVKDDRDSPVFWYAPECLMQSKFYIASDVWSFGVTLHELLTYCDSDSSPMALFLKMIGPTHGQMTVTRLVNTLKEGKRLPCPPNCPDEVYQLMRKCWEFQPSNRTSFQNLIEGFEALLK", "assay": "Z′-Lyte kinase inhibitory activity test", "format": "biochemical", "details": "ATP concentration Km", "procedure": "(§1) Test method: Firstly, test compounds were prepared into 10 mM stock solution with DMSO, and continuously diluted into 10 concentrations at a 3-fold gradient for later use. 5X reaction buffer was diluted with deionized water into 1×reaction buffer (50 mM HEPES pH 7.5, 0.01% Brij-35, 10 mM MgCl2, 1 mM EGTA), which was used to prepare a mixture of kinase and peptide substrate, as well as a phosphorylated peptide substrate solution. The kinase concentration was determined based on enzyme titration, and the final concentration of peptide substrate and phosphorylated peptide substrate was 2 μM. 5 μL of mixture substrate of kinase and peptide substrate was added to each well on the 384 well plate. Then 5 nL of the test compound (starting with a final concentration of 10 μM) was added with an Echo520 Sampler. […] An additional 100% phosphorylation well (5 μL phosphorylated peptide substrate solution), a 0% phosphorylated well (5 μL of a mixture of kinase and peptide substrate, without test compounds and ATP), and a 0% inhibitory well (5 μL of a mixture of kinase and peptide substrate and appropriate concentration of ATP) were set as control. Two repeats were set for each concentration. The above reaction system was incubated at 30° C. for 1.5 hours. […] 2.5 μL of the diluted mixture was added to each well and the system was incubated at 30° C. for another 1 hour. […] The substrate phosphorylation rate was obtained by calculating the ratio, and the activity of the kinase and the effect of the inhibitor on the kinase was further calculated. Every experiment was repeated at least three times."}, "JAK2": {"molecular_target": "JAK2 (Homo sapiens (Human), UniProt O60674)", "sequence (O60674 whole entry)": "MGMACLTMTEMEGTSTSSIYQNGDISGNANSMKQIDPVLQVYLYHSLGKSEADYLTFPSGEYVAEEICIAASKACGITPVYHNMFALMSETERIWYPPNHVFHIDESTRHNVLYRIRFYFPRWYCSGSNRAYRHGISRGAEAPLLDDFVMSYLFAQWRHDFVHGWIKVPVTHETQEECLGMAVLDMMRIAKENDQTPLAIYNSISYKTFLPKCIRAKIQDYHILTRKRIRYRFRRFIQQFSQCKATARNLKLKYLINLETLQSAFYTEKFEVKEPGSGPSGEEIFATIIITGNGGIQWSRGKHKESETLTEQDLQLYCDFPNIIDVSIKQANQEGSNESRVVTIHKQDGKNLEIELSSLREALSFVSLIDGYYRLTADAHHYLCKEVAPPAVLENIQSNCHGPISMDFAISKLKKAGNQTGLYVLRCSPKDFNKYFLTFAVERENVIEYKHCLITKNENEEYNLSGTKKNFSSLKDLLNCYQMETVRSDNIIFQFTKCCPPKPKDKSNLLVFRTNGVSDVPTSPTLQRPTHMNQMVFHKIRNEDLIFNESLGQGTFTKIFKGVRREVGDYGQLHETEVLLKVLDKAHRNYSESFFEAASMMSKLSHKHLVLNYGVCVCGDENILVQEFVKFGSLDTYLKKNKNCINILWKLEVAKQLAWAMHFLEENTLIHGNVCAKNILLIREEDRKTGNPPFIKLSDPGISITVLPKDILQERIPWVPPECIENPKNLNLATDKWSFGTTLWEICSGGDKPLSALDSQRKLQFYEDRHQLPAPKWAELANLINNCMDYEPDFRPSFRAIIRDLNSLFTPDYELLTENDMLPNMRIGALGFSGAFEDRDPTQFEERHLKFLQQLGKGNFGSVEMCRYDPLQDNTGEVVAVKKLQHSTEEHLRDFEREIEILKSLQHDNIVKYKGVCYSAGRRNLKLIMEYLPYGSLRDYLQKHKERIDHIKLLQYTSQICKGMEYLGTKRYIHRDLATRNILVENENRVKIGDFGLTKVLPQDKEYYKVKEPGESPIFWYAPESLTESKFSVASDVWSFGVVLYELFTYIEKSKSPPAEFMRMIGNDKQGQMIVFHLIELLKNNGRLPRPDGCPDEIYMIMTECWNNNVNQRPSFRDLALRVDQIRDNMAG", "assay": "Z′-Lyte kinase inhibitory activity test", "format": "biochemical", "details": "ATP concentration Km", "procedure": "as §1"}, "JAK3": {"molecular_target": "JAK3 (Homo sapiens (Human), UniProt P52333)", "sequence (P52333 whole entry)": "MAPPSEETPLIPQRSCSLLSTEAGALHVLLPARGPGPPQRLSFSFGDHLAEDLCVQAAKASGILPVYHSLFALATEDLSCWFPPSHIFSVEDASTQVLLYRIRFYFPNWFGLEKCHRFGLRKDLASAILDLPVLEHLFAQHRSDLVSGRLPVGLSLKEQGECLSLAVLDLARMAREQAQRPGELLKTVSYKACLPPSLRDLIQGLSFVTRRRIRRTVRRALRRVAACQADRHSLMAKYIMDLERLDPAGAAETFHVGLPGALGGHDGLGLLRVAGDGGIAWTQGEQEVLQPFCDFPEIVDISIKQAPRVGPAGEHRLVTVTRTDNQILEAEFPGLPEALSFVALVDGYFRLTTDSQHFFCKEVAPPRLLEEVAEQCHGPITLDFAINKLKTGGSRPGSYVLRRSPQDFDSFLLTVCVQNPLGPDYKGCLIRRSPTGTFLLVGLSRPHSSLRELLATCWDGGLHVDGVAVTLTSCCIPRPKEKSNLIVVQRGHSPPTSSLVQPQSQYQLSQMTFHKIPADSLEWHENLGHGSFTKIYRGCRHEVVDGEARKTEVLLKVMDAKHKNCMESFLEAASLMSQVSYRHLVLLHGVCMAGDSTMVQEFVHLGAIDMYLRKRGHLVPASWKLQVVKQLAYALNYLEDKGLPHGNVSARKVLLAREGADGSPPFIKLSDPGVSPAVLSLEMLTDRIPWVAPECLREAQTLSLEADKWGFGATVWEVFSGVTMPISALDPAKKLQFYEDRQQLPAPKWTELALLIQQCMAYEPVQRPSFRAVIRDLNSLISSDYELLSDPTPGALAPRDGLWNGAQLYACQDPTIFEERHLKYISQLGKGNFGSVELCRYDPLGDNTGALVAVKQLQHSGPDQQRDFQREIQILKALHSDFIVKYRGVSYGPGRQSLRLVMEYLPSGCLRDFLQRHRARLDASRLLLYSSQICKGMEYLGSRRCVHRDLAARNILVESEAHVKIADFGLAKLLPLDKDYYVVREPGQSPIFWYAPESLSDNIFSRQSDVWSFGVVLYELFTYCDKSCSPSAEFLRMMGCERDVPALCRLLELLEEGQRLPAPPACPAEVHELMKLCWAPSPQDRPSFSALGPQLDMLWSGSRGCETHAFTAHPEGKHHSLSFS", "assay": "Z′-Lyte kinase inhibitory activity test", "format": "biochemical", "procedure": "as §1"}, "TYK2": {"molecular_target": "TYK2 (Homo sapiens (Human), UniProt P29597)", "sequence (P29597 whole entry)": "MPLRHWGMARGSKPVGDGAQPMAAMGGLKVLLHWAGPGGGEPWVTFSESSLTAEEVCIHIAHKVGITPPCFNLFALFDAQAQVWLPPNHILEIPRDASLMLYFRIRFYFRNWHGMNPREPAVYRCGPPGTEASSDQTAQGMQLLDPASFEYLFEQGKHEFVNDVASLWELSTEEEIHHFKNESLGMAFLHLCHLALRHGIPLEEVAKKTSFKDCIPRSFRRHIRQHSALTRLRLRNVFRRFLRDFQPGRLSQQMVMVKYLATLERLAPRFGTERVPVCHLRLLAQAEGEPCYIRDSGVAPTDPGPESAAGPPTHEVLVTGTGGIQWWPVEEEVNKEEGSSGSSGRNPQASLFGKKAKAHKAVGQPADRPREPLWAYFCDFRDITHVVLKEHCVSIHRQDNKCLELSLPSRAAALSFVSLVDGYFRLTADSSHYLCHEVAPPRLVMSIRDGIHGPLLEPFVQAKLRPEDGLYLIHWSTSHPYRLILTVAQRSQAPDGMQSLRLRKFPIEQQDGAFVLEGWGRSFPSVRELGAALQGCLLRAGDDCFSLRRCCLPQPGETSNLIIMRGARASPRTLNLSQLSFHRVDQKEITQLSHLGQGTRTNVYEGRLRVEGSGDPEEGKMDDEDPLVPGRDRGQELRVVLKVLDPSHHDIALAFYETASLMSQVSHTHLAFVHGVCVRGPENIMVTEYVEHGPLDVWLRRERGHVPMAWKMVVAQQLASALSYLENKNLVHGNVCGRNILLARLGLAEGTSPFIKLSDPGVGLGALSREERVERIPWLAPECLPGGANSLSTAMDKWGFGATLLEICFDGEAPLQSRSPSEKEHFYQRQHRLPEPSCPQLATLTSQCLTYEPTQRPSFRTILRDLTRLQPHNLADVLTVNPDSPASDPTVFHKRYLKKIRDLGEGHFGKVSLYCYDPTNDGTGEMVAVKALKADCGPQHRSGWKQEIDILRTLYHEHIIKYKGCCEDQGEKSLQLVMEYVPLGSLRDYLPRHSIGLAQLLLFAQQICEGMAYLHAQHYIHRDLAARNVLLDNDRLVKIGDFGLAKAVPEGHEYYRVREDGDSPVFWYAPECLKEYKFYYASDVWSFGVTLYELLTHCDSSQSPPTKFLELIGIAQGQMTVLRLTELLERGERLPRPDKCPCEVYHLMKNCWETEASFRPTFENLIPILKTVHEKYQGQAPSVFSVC", "assay": "Z′-Lyte kinase inhibitory activity test", "format": "biochemical", "details": "ATP concentration Km", "procedure": "as §1"}, "[1]": {"system": "human T lymphoblastic lymphoma cell line Jurkat", "assay": "CCK-8 in vitro proliferation inhibition", "format": "cell-based", "details": "72 hours, read-out: Inhibitory activity (IC50) on cell proliferation, JURKAT", "procedure": "(§2) Cell lines: human chronic myeloid leukemia cell line K562, human acute myeloid leukemia cell line U937, human T lymphocyte leukemia cell line HuT78, and human T lymphoblastic lymphoma cell line Jurkat. Cells were purchased from the Chinese Academy of Sciences Stem Cell Bank or ATCC.\n(§3) […] were cultured overnight and suspended cells were directly stimulated with drugs. […] Two repeats were set for each concentration, with a final volume of 200 μL. […] The absorbance values at 450 nm and 650 nm were measured using a microplate reader, and the increment Z (A450-A650) was derived. The inhibitory rate of drugs on cell growth was calculated by GraphPad Prism 8.0.0 through the following formula:\n(§4) Inhibition rate (%)(ODcontrol−ODdosing)/ODcontrol×100%\n(§5) The half inhibitory concentration (IC50) was calculated. Every experiment was repeated at least three times."}, "[2]": {"system": "human acute myeloid leukemia cell line U937", "assay": "CCK-8 in vitro proliferation inhibition", "format": "cell-based", "details": "read-out: Inhibitory activity (IC50) on cell proliferation, U937", "procedure": "as §2, §3, §4, §5"}, "[3]": {"system": "human T lymphocyte leukemia cell line HuT78", "assay": "CCK-8 in vitro proliferation inhibition", "format": "cell-based", "details": "read-out: Inhibitory activity (IC50) on cell proliferation, HUT78", "procedure": "as §2, §3, §4, §5"}, "[4]": {"system": "human chronic myeloid leukemia cell line K562", "assay": "CCK-8 in vitro proliferation inhibition", "format": "cell-based", "details": "read-out: Inhibitory activity (IC50) on cell proliferation, K562", "procedure": "as §2, §3, §4, §5"}, "[5]": {"system": "other subtypes (JAK family)", "details": "1 mM ATP concentration; read-out: IC50 of the kinase, other subtypes; cited from earlier work"}, "[6]": {"assay": "Rat liver microsomes stability test", "format": "in vitro ADME", "details": "for Remaining percentage: rat liver microsomes, average value", "procedure": "Firstly, preheated 0.1 M potassium phosphate buffer with 5 mM MgCl2 (i.e. K/Mg buffer) at pH 7.4±0.1. Prepared the spiked solution for the tested compound and reference compound (500 μM spiked solution: added 5 μL of 10 mM stock solution into 95 μL of acetonitrile; 1.5 μM microsomal spiked solution (0.75 mg/mL): added 1.5 μL of 500 μM spiked solution and 18.75 μL of 20 mg/mL liver microsomes into 479.75 μL of K/Mg buffer). Then NADPH was dissolved in buffer K to prepare a 6 mM, 5 mg/mL NADPH stock solution. At different time points (0-, 5-, 15-, 30-, 45 minutes), 30 μL of 1.5 μM spiked solution containing 0.75 mg/mL of microsome solution was distributed onto the designated detection plate. At 0 min, 150 μL of acetonitrile containing internal standard (IS) was added to the 0 min plate well, followed by 15 μL of NADPH stock solution (6 mM). Then, all plates were pre-incubated at 37° C. for 5 minutes, added 15 μL of NADPH stock solution (6 mM), the reaction was initiated and timed. At 5 minutes, 15 minutes, 30 minutes, and 45 minutes, added 150 μL of acetonitrile solution containing IS to the corresponding wells to stop the reaction. After quenching, the plate was shaken for 10 minutes (600 rpm/min), followed by centrifugation at 6000 rpm/min for 15 minutes. 80 μL of supernatant of each well were transferred into a 96-well sample plate containing 140 μL of ultrapure water to perform LC/MS analysis. The analysis of biological samples and all samples were completed by the analysis laboratory of Medicipia Pharmaceutical Technology (Shanghai) Co., Ltd."}}, "note": "pIC50: −log10 of the molar value. Read-outs that look alike come from different tables or passages of the source.", "data": [{"molecule": "COc1cc(Nc2ncc(Cl)c(O[C@@H]3CO[C@H]4[C@@H]3OC[C@H]4O)n2)ccc1N1CCC(N2CCN(C)CC2)CC1", "note": "[LS 4-143]", "values": [{"measurement": "pIC50", "setting": "JAK1", "value": 6.21}, {"measurement": "pIC50", "setting": "JAK2", "value": 6.27}, {"measurement": "IC50", "setting": "JAK3; ATP concentration 1 mM, in μM", "value": "> 10", "unit": "µM"}, {"measurement": "pIC50", "setting": "JAK3; ATP concentration Km", "value": 7.32}, {"measurement": "pIC50", "setting": "TYK2", "value": 6.38}, {"measurement": "pIC50", "setting": "[1]; Homo sapiens, Jurkat", "value": 5.20}, {"measurement": "pIC50", "setting": "[2]; Homo sapiens, U-937, 72 hours", "value": 6.13}, {"measurement": "pIC50", "setting": "[3]; Homo sapiens, HuT78, 72 hours", "value": 5.47}, {"measurement": "pIC50", "setting": "[4]; Homo sapiens, K562, 72 hours", "value": 6.45}]}, {"molecule": "C=CC(=O)N1C[C@H](Nc2ncnc3[nH]ccc23)CC[C@@H]1C", "note": "[PF-06651600, reference compound]", "values": [{"measurement": "pIC50", "setting": "[5]", "value": "< 5.00"}, {"measurement": "pIC50", "setting": "[1]", "value": "< 4.52"}, {"measurement": "pIC50", "setting": "[2]; 72 hours", "value": 7.71}, {"measurement": "pIC50", "setting": "[3]; 72 hours", "value": "< 4.52"}, {"measurement": "pIC50", "setting": "[4]; 72 hours", "value": "< 4.52"}]}, {"molecule": "O=C(c1ccc(F)cc1)C1CCN(CCn2c(=O)[nH]c3ccccc3c2=O)CC1", "note": "[ketanserin, reference compound]", "values": [{"measurement": "Remaining percentage", "setting": "[6]; 0 min", "value": 100.00, "unit": "%"}, {"measurement": "Remaining percentage", "setting": "[6]; 5 min", "value": 75.87, "unit": "%"}, {"measurement": "Remaining percentage", "setting": "[6]; 15 min", "value": 42.60, "unit": "%"}, {"measurement": "Remaining percentage", "setting": "[6]; 30 min", "value": 29.98, "unit": "%"}, {"measurement": "Remaining percentage", "setting": "[6]; 45 min", "value": 17.88, "unit": "%"}, {"measurement": "CLint scaled at 1 µM", "setting": "[6]; rat, liver microsomes, pH 7.4, rat liver microsomes, read-out: Clint", "value": 133, "unit": "mL/min/kg"}, {"measurement": "half-life at 1 µM", "setting": "[6]; rat, liver microsomes, pH 7.4, rat liver microsomes, read-out: T1/2", "value": 18.7, "unit": "min"}]}]}
